Experimental data from patent publication US7629318B2, “Immunosuppressant compounds, methods and uses related thereto” (priority 2002, dated 2009).
Square brackets hold non-standard residues; d marks the D form. Peptide text beside a SMILES is read from it. * marks the point of attachment. Gly(1-amidinopiperidin-4-yl) = N=C(N)N1CCC([C@H](N)C(=O)O)CC1; Tic = O=C(O)[C@@H]1Cc2ccccc2CN1; Cha = N[C@@H](CC1CCCCC1)C(=O)O; NMe(benzyl) = CN(Cc1ccccc1)*; Nle = CCCC[C@H](N)C(=O)O

What was measured:
[1] = test system: HLA-DR1 transgenic mice, collagen induced arthritis; experiment: Collagen induced arthritis (CIA) mouse model for rheumatoid arthritis; type: in vivo; settings: compared to solvent as control; s.c.
Protocol: CIA is induced by immunization with type II collagen in HLA-DR1 transgenic mice as described by Rosloniec et al (J. Exp. Med. 1997; 185: 113). After disease onset, mice are treated with compounds at the maximal tolerated dose s.c. for two weeks, and the disease development compared to that in mice treated with solvent only as follows:
Disease Severity Score • 1. Erythema and mild swelling confined to the tarsals or ankle joint • 2. Erythema and mild swelling extending from the ankle to the tarsals • 3. Erythema and moderate swelling extending from the ankle to the metatarsal joints • 4. Erythema and severe swelling encompass the ankle, foot, and digits

[2] = test system: T cell activation from 0401(DR4) chimeric MHCII-mice; experiment: In vivo inhibition of T cell activation by co-immunisation, DR4 mice immunised with HEL; set-up: species or system mouse; % Reduction of response to PPD(HEL): concentration or dose not given beside the values
Description: Mouse strains DR4 and DR14 carry chimeric MHC-II transgenes that encode the N-terminal domains of the respective DR molecules (forming the peptide binding site) and the remaining (2nd extracellular domains, transmembrane and intracytoplasmic domains) of the murine class II molecule I Ed. These strains are deficient of other murine class II, and thus, all helper T cell responses are triggered by peptides presented in the respective human MHC-II binding site. As an initial in vivo test of subject inhibitors designed to bind to DR, DR-transgenic mice were co-immunized with a pre-defined dose of protein antigen and different amounts of the compound antagonist to be tested. In this set-up, both antigen and compound were emulsified together in complete Freund's adjuvant (CFA), and thus, a direct competition between the two components for presentation by DR was tested. Readout of the assay is ex vivo antigen-specific activation of T cells from regional lymph nodes explanted 9 days after co-immunization. In a typical experiment, antigen dose-response was investigated, and the curves from mice immunized with antigen were compared to those from mice co-immunized with antigen+compound. The dose response curves were generated using lymph node cells pooled at equal numbers from 2-3 mice per experimental group. The experimental system also permits assessment of inherent antigenicity of the compound antagonist. This was done by setting up a dose-response study from the same cell pool using different concentrations of the compund under investigation instead of the antigen. As a specificity control, the response to Purified Protein Derivative (PPD), the major protein component of CFA, was tested in the same cell pool.
All Gpg conataining compounds have significant immunosupressive properties in one or both of the in-vivo models. Gpg-containing compounds also show improved activity or improved specificity over the Arg-containing equivilent. Further, compounds according to Formula I show activity in this assay.
Compounds of the invention were injected as an Emulsion prepared using CFA (Bacto Adjuvant Complete H37 Ra, Difco, Order-No. 3113-60); proteins 10 mg/ml in PBS, inhibitors 5 μM in 10% DMSO. CFA, PBS, antigen, and inhibitor were placed in the barrel of a 5-ml syringe (total volume not more than 1 mL). The mixture was sonicated at an amplitude less than 40% (30-35%) for two separated 15 s periods. The emulsion should seem to be hard and not liquid at this point. A drop of emulsion placed on the surface of water should not melt. The resulting emulsion was pushed through the needle into a 1 ml syringe with a needle (Gr.18, 26G×1″), and air bubbles were removed. Mice were co-immunized with 50 μg protein and 210 nM compound antagonist in final 100 μl emulsion into the tail base. Antigen+Compound and CFA are mixed 1:1 vol/vol. The best results are obtained using DR 4 mice immunised with HEL and DR 14 mice immunized with OVA.
Mice were injected at the tail-base as follows: Holding the tail of a mouse with thumb and middle finger, the index finger was placed under the base of the mouse's tail. The needle of the syringe was inserted about 1.5 cm from the tail base (hairy end) under the skin and pushed about 1 cm into the tail. 100 μl emulsion was injected into the mouse. After 9 days, mice were killed and lymph nodes removed.
The inhibitory effect of the candidate compounds on T-cell activation was tested using T-cells and antigen-presenting cells isolated from the lymph nodes of chimeric DR4-IE transgenic mice (Taconic, USA) previously co-immunized with hen egg lysozyme plus compound, or DR14-IE transgenic mice co-immunized with ovalbumin plus compound according to standard procedures (Adorini et al., 1988, Mueller et al., 1990; Current Protocols in Immunology, Vol. 2, 7.21; Ito et al., 1996). […]

[3] = test system: T cell activation from 0404(DR14) chimeric MHCII-mice; experiment: In vivo inhibition of T cell activation by co-immunisation, DR14 mice immunised with OVA; set-up: species or system mouse; % Reduction of response to PPD(OVA): concentration or dose not given beside the values
In short: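 DR4 or DR14 chimeric MHC-II transgenic mice were co-immunised at the tail base with 50 μg HEL (DR4) or OVA (DR14) plus 210 nM compound, emulsified in CFA. After 9 days, pooled lymph node cells from 2–3 mice per group were tested for T-cell proliferation across an antigen dose range, compared with antigen-only immunisation; PPD served as a specificity control.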

[4] = test system: DR4 transgenic mice, EAE induced by MOG; experiment: Experimental autoimmune encephalomyelitis (EAE) mouse model for multiple sclerosis; type: in vivo; settings: compared to solvent as control; s.c.
Protocol: EAE is induced in DR4 transgenic mice by injection of myelin oligodendrocyte glycoprotein (MOG) as described by Ito et al. (1996). After disease onset, mice are treated with compounds and studied as below:
Disease Score • 1. Tail atony • 2. Hind limb weakness • 3. Hind limb paralysis • 4. Hind limb paralysis and fore limb weakness or paralysis • 5. Moribund

CCCC[C@H](NC(=O)[C@@H]1Cc2ccccc2CN1C(=O)[C@@H](NC(=O)[C@H](CC1CCCCC1)NC(C)=O)C1CCN(C(=N)N)CC1)C(=O)N(C)Cc1ccccc1 [Compound P74, Ac-Cha-Gpg-Tic-Nle-N(Me)Bn] (Ac-[Cha][Gly(1-amidinopiperidin-4-yl)][Tic][Nle]-{NMe(benzyl)})
efficacy in the CIA mouse model for rheumatoid arthritis [1]: Efficacy
% Reduction of response to HEL ([2]; DR4 mice co-immunised with HEL plus compound, mean % inhibition from the control over 3 concentrations of antigen (6.7, 20 and 60 ug)): 51.6%
% Reduction of response to PPD(HEL) ([2]; specificity control: response to PPD in the same cell pool, HEL co-immunised mice): 12.8%
% Reduction of response to OVA ([3]; DR14 mice co-immunised with OVA plus compound, mean % inhibition from the control over 3 concentrations of antigen (6.7, 20 and 60 ug)): 42.5%
% Reduction of response to PPD(OVA) ([3]; specificity control: response to PPD in the same cell pool, OVA co-immunised mice): 5.8%
efficacy in the EAE mouse model for multiple sclerosis prevention [4]: Efficacy
